# The source made the active and inactive calls. No cut-off for these calls is given here.
# Experiments:
# Format in all cases: functional
# Rattus norvegicus [1] = test: Antihypertensive activity in spontaneous hypertensive rat model assessed as change in blood pressure at 100 mg/kg, po on day 1 and 3 measured 2 hrs post dose on day 3 by standard 3-day test
# Rattus norvegicus [2] = test: Antihypertensive activity in spontaneous hypertensive rat model assessed as change in blood pressure at 100 mg/kg, po on day 1 and 3 measured 2 hrs post dose on day 1 by standard 3-day test
# Rattus norvegicus [3] = test: Antihypertensive activity in spontaneous hypertensive rat model assessed as change in blood pressure at 50 mg/kg, po on day 1 and 3 measured 2 hrs post dose on day 3 by standard 3-day test
smiles,measurement,setting,value
O=C(NN1CCN(CCc2c[nH]c3ccccc23)CC1)c1ccc([N+](=O)[O-])cc1,Activity,Rattus norvegicus [1],16 mmHg
same,Activity,Rattus norvegicus [2],17 mmHg
Cc1[nH]c2ccccc2c1CCN1CCN(NC(=O)c2ccc([N+](=O)[O-])cc2)CC1,Activity,Rattus norvegicus [1],20 mmHg
same,Activity,Rattus norvegicus [2],25 mmHg
Cl.O=C(NC1CCN(CCc2c[nH]c3ccccc23)CC1)c1ccccc1 [INDORAMIN HYDROCHLORIDE],Activity,Rattus norvegicus [2],63 mmHg
same,Activity,Rattus norvegicus [3],79 mmHg
COc1cc2[nH]c(C)c(CCN3CCN(NC(=O)c4ccccc4OC)CC3)c2cc1OC.Cl,Activity,Rattus norvegicus [1],15 mmHg
same,Activity,Rattus norvegicus [2],4 mmHg
COc1ccc(C(=O)NN2CCN(CCc3c[nH]c4ccccc34)CC2)cc1,Activity,Rattus norvegicus [1],19 mmHg
same,Activity,Rattus norvegicus [2],25 mmHg
O=C(NN1CCN(CCc2c[nH]c3ccccc23)CC1)C1CCCCC1,Activity,Rattus norvegicus [1],35 mmHg
same,Activity,Rattus norvegicus [2],37 mmHg
O=C(NN1CCN(CCc2c[nH]c3ccccc23)CC1)C1CC2CCC1C2 (stereo unspecified),Activity,Rattus norvegicus [1],11 mmHg
same,Activity,Rattus norvegicus [2],20 mmHg
Cc1[nH]c2ccccc2c1CCN1CCN(NC(=O)c2ccccc2)CC1,Activity,Rattus norvegicus [1],37 mmHg
same,Activity,Rattus norvegicus [2],39 mmHg
Cc1cccc(C(=O)NN2CCN(CCc3c[nH]c4ccccc34)CC2)c1,Activity,Rattus norvegicus [1],26 mmHg
same,Activity,Rattus norvegicus [2],17 mmHg
CC(=O)NN1CCN(CCc2c[nH]c3ccccc23)CC1,Activity,Rattus norvegicus [1],40 mmHg
same,Activity,Rattus norvegicus [2],32 mmHg
O=C(NN1CCN(CCc2c[nH]c3ccccc23)CC1)C(c1ccccc1)c1ccccc1,Activity,Rattus norvegicus [1],10 mmHg
same,Activity,Rattus norvegicus [2],3 mmHg
O=C(NN1CCN(Cc2c[nH]c3ccccc23)CC1)c1ccc(F)cc1,Activity,Rattus norvegicus [1],Active
same,Activity,Rattus norvegicus [2],Active
COc1ccccc1C(=O)NN1CCN(CCc2c[nH]c3ccccc23)CC1,Activity,Rattus norvegicus [1],23 mmHg
same,Activity,Rattus norvegicus [2],7 mmHg
Cc1[nH]c2ccccc2c1CCN1CCN(NC(=O)c2ccc(F)cc2)CC1,Activity,Rattus norvegicus [1],25 mmHg
same,Activity,Rattus norvegicus [2],29 mmHg
Cc1ccc(C(=O)NN2CCN(CCc3c[nH]c4ccccc34)CC2)cc1,Activity,Rattus norvegicus [1],43 mmHg
same,Activity,Rattus norvegicus [2],18 mmHg
COc1cc2[nH]c(C)c(CCN3CCN(NC(=O)c4ccc(C(F)(F)F)cc4)CC3)c2cc1OC.Cl,Activity,Rattus norvegicus [1],5 mmHg
same,Activity,Rattus norvegicus [2],2 mmHg
Cc1ccccc1C(=O)NN1CCN(CCc2c[nH]c3ccccc23)CC1,Activity,Rattus norvegicus [1],19 mmHg
same,Activity,Rattus norvegicus [2],19 mmHg
COc1cc(C(=O)NN2CCN(CCc3c[nH]c4ccccc34)CC2)cc(OC)c1OC,Activity,Rattus norvegicus [1],70 mmHg
same,Activity,Rattus norvegicus [2],63 mmHg
O=C(NN1CCN(CCc2c[nH]c3ccccc23)CC1)c1ccc(C(F)(F)F)cc1,Activity,Rattus norvegicus [1],36 mmHg
same,Activity,Rattus norvegicus [2],9 mmHg
O=C(NN1CCN(CC(O)c2c[nH]c3ccccc23)CC1)c1ccccc1 (racemic),Activity,Rattus norvegicus [1],33 mmHg
same,Activity,Rattus norvegicus [2],30 mmHg
O=C(NN1CCN(CCc2c[nH]c3ccccc23)CC1)c1ccco1,Activity,Rattus norvegicus [1],64 mmHg
same,Activity,Rattus norvegicus [2],58 mmHg
O=C(NN1CCN(CCc2c[nH]c3ccccc23)CC1)c1ccccc1F,Activity,Rattus norvegicus [1],56 mmHg
same,Activity,Rattus norvegicus [2],47 mmHg
COc1cc2[nH]c(C)c(CCN3CCN(NC(=O)c4ccc(F)cc4)CC3)c2cc1OC,Activity,Rattus norvegicus [1],23 mmHg
same,Activity,Rattus norvegicus [2],9 mmHg
O=C(NN1CCN(CCc2c[nH]c3ccccc23)CC1)c1cccc(C(F)(F)F)c1,Activity,Rattus norvegicus [1],19 mmHg
same,Activity,Rattus norvegicus [2],49 mmHg
COc1cc(OC)cc(C(=O)NN2CCN(CCc3c[nH]c4ccccc34)CC2)c1,Activity,Rattus norvegicus [1],111 mmHg
same,Activity,Rattus norvegicus [2],46 mmHg
O.O=C(NN1CCN(CCc2c[nH]c3ccccc23)CC1)c1ccccc1,Activity,Rattus norvegicus [1],56 mmHg
same,Activity,Rattus norvegicus [2],24 mmHg
O=C(NN1CCN(Cc2c[nH]c3ccccc23)CC1)c1ccccc1,Activity,Rattus norvegicus [1],Active
same,Activity,Rattus norvegicus [2],Active
COc1cccc(C(=O)NN2CCN(CCc3c[nH]c4ccccc34)CC2)c1,Activity,Rattus norvegicus [1],2 mmHg
same,Activity,Rattus norvegicus [2],21 mmHg
O=C(NN1CCN(CCc2c[nH]c3ccccc23)CC1)c1ccc(Cl)cc1,Activity,Rattus norvegicus [1],22 mmHg
same,Activity,Rattus norvegicus [2],17 mmHg
COc1cc(C(=O)NN2CCN(Cc3c[nH]c4ccccc34)CC2)cc(OC)c1OC,Activity,Rattus norvegicus [1],36 mmHg
same,Activity,Rattus norvegicus [2],20 mmHg
O=C(NN1CCN(CCc2c[nH]c3ccccc23)CC1)c1ccc(F)cc1,Activity,Rattus norvegicus [1],57 mmHg
same,Activity,Rattus norvegicus [2],56 mmHg
COc1cc2[nH]c(C)c(CCN3CCN(NC(=O)c4ccccc4)CC3)c2cc1OC,Activity,Rattus norvegicus [1],12 mmHg
same,Activity,Rattus norvegicus [2],9 mmHg
O=C(NN1CCN(CCc2c[nH]c3ccccc23)CC1)c1ccncc1,Activity,Rattus norvegicus [1],24 mmHg
same,Activity,Rattus norvegicus [2],23 mmHg
